Results reported in ChEMBL document CHEMBL5356947, “Mitochondria-targeted biotin-conjugated BODIPYs for cancer imaging and therapy” (RSC Med Chem, 2023).

Legend:
[1] = Photosensitizing ability of the compound in MeOH assessed as singlet oxygen generation at 408 nm measured upto 120 sec by DPBF based assay; format: functional
[2] = Photocytotoxicity against human MCF-10A cells assessed as inhibition of cell growth incubated for 24 hrs by MTT assay; format: toxicity, cell-based
[3] = test system: MDA-MB-231; assay: Induction of apoptosis in human MDA-MB-231 cells assessed as early apoptotic cells at 30 nM preincubated with compound for 24 hrs followed by 540 nm light irradiation for 1 hrs by Annexin V-FITC/PI staining based flow cytometric analysis (reference value: 19.2%); format: functional; conditions: time 25 hrs
[4] = test system: MDA-MB-231; assay: Cell cycle arrest in human MDA-MB-231 cells assessed as accumulation of cells at G2/M phase incubated for 24 hrs by RNase A/PI staining based flow cytometric analysis relative to control; format: functional
[5] = test system: HT-29; assay: Photocytotoxicity against human HT-29 cells assessed as inhibition of cell growth incubated for 24 hrs by MTT assay; format: functional, cell-based; conditions: HT-29, 24 h
[6] = test system: HCT-116; assay: Photocytotoxicity against human HCT-116 cells assessed as inhibition of cell growth incubated for 24 hrs by MTT assay; format: functional, cell-based; conditions: HCT-116, 24 h
[7] = test system: MDA-MB-231; assay: Photocytotoxicity against human MDA-MB-231 cells assessed as inhibition of cell growth incubated for 24 hrs by MTT assay; format: functional, cell-based; conditions: MDA-MB-231, 24 h
[8] = test system: MDA-MB-231; assay: Induction of apoptosis in human MDA-MB-231 cells assessed as late apoptotic cells at 15 nM preincubated with compound for 24 hrs followed by 540 nm light irradiation for 1 hrs by Annexin V-FITC/PI staining based flow cytometric analysis (reference value: 17.1%); format: functional; conditions: time 25 hrs
[9] = Emission property of the compound by fluorescence spectrophotometer analysis; format: physicochemical
[10] = test system: MDA-MB-231; assay: Cell cycle arrest in human MDA-MB-231 cells assessed as accumulation of cells at S phase at 30 nM preincubated with compound for 15 mins followed by light irradiation and measured after 3 to 24 hrs by RNase A/PI staining based flow cytometric analysis (reference value: 16.4%); format: functional; conditions: time 195-1455 min
[11] = test system: MDA-MB-231; assay: Induction of apoptosis in human MDA-MB-231 cells assessed as early apoptotic cells at 15 nM incubated for 24 hrs under dark condition by Annexin V-FITC/PI staining based flow cytometric analysis relative to control; format: functional
[12] = test system: MDA-MB-231; assay: Cell cycle arrest in human MDA-MB-231 cells assessed as accumulation of cells at G1 phase at 30 nM preincubated with compound for 15 mins followed by light irradiation and measured after 3 to 24 hrs by RNase A/PI staining based flow cytometric analysis (reference value: 65.7%); format: functional; conditions: time 195-1455 min
[13] = Fluorescence property of the compound assessed as fluorescence quantum yield in EtOH; format: physicochemical
[14] = test system: MDA-MB-231; assay: Induction of oxidative stress on human MDA-MB-231 cells assessed as increase in ROS population at 15 nM preincubated with compound for 24 hrs followed by 540 nm light irradiation for 1 hrs by CM-H2DCFDA staining based analysis (reference value: 1.6%); format: functional; conditions: time 25 hrs
[15] = test system: MDA-MB-231; assay: Induction of apoptosis in human MDA-MB-231 cells assessed as necrotic cells at 30 nM preincubated with compound for 24 hrs followed by 540 nm light irradiation for 1 hrs by Annexin V-FITC/PI staining based flow cytometric analysis (reference value: 2.7%); format: functional; conditions: time 25 hrs
[16] = test system: MDA-MB-231; assay: Induction of apoptosis in human MDA-MB-231 cells assessed as late apoptotic cells at 30 nM preincubated with compound for 24 hrs followed by 540 nm light irradiation for 1 hrs by Annexin V-FITC/PI staining based flow cytometric analysis (reference value: 17.1%); format: functional; conditions: time 25 hrs
[17] = test system: MDA-MB-231; assay: Induction of oxidative stress on human MDA-MB-231 cells assessed as increase in ROS population incubated for 24 hrs under dark condition by CM-H2DCFDA staining based analysis relative to control; format: functional
[18] = Absorption property of the compound assessed as decay lifetime; format: physicochemical
[19] = test system: MDA-MB-231; assay: Cell cycle arrest in human MDA-MB-231 cells assessed as accumulation of cells at S phase incubated for 24 hrs by RNase A/PI staining based flow cytometric analysis relative to control; format: functional
[20] = test system: MDA-MB-231; assay: Induction of oxidative stress on human MDA-MB-231 cells assessed as increase in ROS population at 30 nM preincubated with compound for 24 hrs followed by 540 nm light irradiation for 1 hrs by CM-H2DCFDA staining based analysis (reference value: 1.6%); format: functional; conditions: time 25 hrs
[21] = Absorption property of the compound by UV-vis spectrophotometer; format: physicochemical
[22] = test system: MDA-MB-231; assay: Cell cycle arrest in human MDA-MB-231 cells assessed as accumulation of cells at G2/M phase at 30 nM preincubated with compound for 15 mins followed by light irradiation and measured after 3 to 24 hrs by RNase A/PI staining based flow cytometric analysis (reference value: 12.9%); format: functional; conditions: time 195-1455 min
[23] = test system: MDA-MB-231; assay: Induction of apoptosis in human MDA-MB-231 cells assessed as late apoptotic cells at 15 nM incubated for 24 hrs under dark condition by Annexin V-FITC/PI staining based flow cytometric analysis relative to control; format: functional
[24] = Drug localization in mitochondria of human MDA-MB-231 cells incubated for 1 hrs by Mitotracker deep red/Hoechst staining based confocal microscopic analysis; format: ADME; conditions: mda-mb-231, 1 h
[25] = test system: MDA-MB-231; assay: Induction of apoptosis in human MDA-MB-231 cells assessed as necrotic cells at 15 nM incubated for 24 hrs under dark condition by Annexin V-FITC/PI staining based flow cytometric analysis relative to control; format: functional
[26] = test system: MDA-MB-231; assay: Cell cycle arrest in human MDA-MB-231 cells assessed as accumulation of cells at G1 phase at 15 nM preincubated with compound for 15 mins followed by light irradiation and measured after 3 to 24 hrs by RNase A/PI staining based flow cytometric analysis (reference value: 65.7%); format: functional; conditions: time 195-1455 min
[27] = test system: MDA-MB-231; assay: Cell cycle arrest in human MDA-MB-231 cells assessed as accumulation of cells at S phase at 15 nM preincubated with compound for 15 mins followed by light irradiation and measured after 3 to 24 hrs by RNase A/PI staining based flow cytometric analysis (reference value: 16.4%); format: functional; conditions: time 195-1455 min
[28] = Absorption property of the compound assessed as molar extinction co-effecient by UV-vis spectrophotometer; format: physicochemical
[29] = test system: MDA-MB-231; assay: Induction of apoptosis in human MDA-MB-231 cells assessed as necrotic cells at 15 nM preincubated with compound for 24 hrs followed by 540 nm light irradiation for 1 hrs by Annexin V-FITC/PI staining based flow cytometric analysis (reference value: 2.7%); format: functional; conditions: time 25 hrs
[30] = test system: MDA-MB-231; assay: Induction of apoptosis in human MDA-MB-231 cells assessed as early apoptotic cells at 15 nM preincubated with compound for 24 hrs followed by 540 nm light irradiation for 1 hrs by Annexin V-FITC/PI staining based flow cytometric analysis (reference value: 19.2%); format: functional; conditions: time 25 hrs
[31] = test system: MCF7; assay: Photocytotoxicity against human MCF7 cells assessed as inhibition of cell growth incubated for 24 hrs by MTT assay; format: functional, cell-based; conditions: MCF7, 24 h
[32] = test system: MDA-MB-231; assay: Cell cycle arrest in human MDA-MB-231 cells assessed as accumulation of cells at G2/M phase at 15 nM preincubated with compound for 15 mins followed by light irradiation and measured after 3 to 24 hrs by RNase A/PI staining based flow cytometric analysis (reference value: 12.9%); format: functional; conditions: time 195-1455 min
[33] = test system: MDA-MB-231; assay: Cell cycle arrest in human MDA-MB-231 cells assessed as accumulation of cells at G1 phase incubated for 24 hrs by RNase A/PI staining based flow cytometric analysis relative to control; format: functional
[34] = Absorption property of the compound assessed as triplet quantum yield by UV-vis spectrophotometer; format: physicochemical

## O=C1OC2(c3cc(I)c(O)c(I)c3Oc3c2cc(I)c(O)c3I)c2c(Cl)c(Cl)c(Cl)c(Cl)c21
[1]
  Activity: 0.75

## CC1=C(I)C(C)=[N+]2C1=C(c1ccc(OCc3cn(CCOCCOCCOCCNC(=O)CCCCC4SCC5NC(=O)NC54)nn3)cc1)c1c(C)c(I)c(C)n1[B-]2(F)F (stereo unspecified)
[2]
  IC50 at 24 h: 196 nM
[3]
  Activity: 8.3%
[4]
  Activity: 13.7%
[5]
  IC50: 27.5 nM
[6]
  IC50: 22.5 nM
[7]
  IC50: 18.7 nM
[8]
  Activity: 30%
[9]
  Activity: 551 nm
[10]
  Activity: 14.7%
[11]
  Activity: 13%
[12]
  Activity: 62.2%
[13]
  Activity: 0.032
[14]
  Activity: 41.6%
[15]
  Activity: 21.4%
[1]
  Activity: 0.33
[16]
  Activity: 43%
[17]
  Activity: 14.2%
[18]
  Time: 3.6 microsec
[19]
  Activity: 17.7%
[20]
  Activity: 62.3%
[21]
  Activity: 534 nm
[22]
  Activity: 22.9%
[23]
  Activity: 10.4%
[24]
  Drug uptake: Active
[25]
  Activity: 3%
[26]
  Activity: 59%
[27]
  Activity: 15.5%
[28]
  Activity: 123000 M⁻¹ cm⁻¹
[29]
  Activity: 7.3%
[30]
  Activity: 22.4%
[31]
  IC50: 21.8 nM
[32]
  Activity: 21.8%
[33]
  Activity: 64.8%
[34]
  Activity: 0.4

## CC/N=c1/cc2oc3cc(NCC)c(C)cc3c(-c3ccccc3C(=O)OCC)c-2cc1C.Cl
[13]
  Activity: 0.95
